From PubChem BioAssay AID520 (NMMLSC, 2006)
Calls of active or inactive are those of the source. How the calls were made is not given here.

Target: N-formyl peptide receptor 2 (Homo sapiens) (UniProt P25090)
Assay: FPRL1 binding inhibitor potency, dose response, cell-based, FPR counter-screen, fluorescent ligand (AID 520)
Conditions: FPRL1-expressing cells, fluorescent ligand binding inhibition; for Ki: measured here: FPRL1 binding Ki

Chain of N-formyl peptide receptor 2 (Homo sapiens) (P25090 whole entry, looked up): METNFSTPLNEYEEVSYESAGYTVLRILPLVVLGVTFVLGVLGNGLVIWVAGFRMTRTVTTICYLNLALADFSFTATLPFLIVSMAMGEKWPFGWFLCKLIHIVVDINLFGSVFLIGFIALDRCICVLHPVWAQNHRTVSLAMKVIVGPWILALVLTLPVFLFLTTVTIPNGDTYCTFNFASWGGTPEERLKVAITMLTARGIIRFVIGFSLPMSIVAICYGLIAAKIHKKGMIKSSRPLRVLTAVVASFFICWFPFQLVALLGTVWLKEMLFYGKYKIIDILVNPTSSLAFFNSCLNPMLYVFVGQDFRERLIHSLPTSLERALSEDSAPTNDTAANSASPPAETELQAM

Row | Compound | Ki | IC50
1 | COc1cc2c3c(c1)/C(=C1/SC(NC(C)=O)=NC1=O)C(=O)N3C(C)(C)C=C2C | > 40.3 µM | 
2 | COc1ccc(/C(O)=C2\C(=O)C(=O)N(Cc3ccco3)C2c2ccc(OC)cc2OC)cc1 (configuration not stated) | > 40.3 µM | > 66.7 µM (inactive)
3 | Cc1cc2oc(C(=O)NC3CCS(=O)(=O)C3)c(C)c2cc1C (configuration not stated) | > 40.3 µM | 
4 | O=C(C1=C(O)C(=O)N(CCN2CCOCC2)C1c1ccccc1)c1cccs1 (configuration not stated) | > 40.3 µM | > 66.7 µM (inactive)
5 | O=C(NC1CCCC1)C1CC1c1ccccc1 (configuration not stated) | > 40.3 µM | 
6 | COc1ccc(OC)c(C2C(C(=O)c3cc4ccccc4o3)=C(O)C(=O)N2c2cc(C)on2)c1 (configuration not stated) | > 40.3 µM | > 66.7 µM (inactive)
7 | CNc1nn(-c2cccc(Cl)c2)nc1N | 11 µM | 
8 | COc1cc(-n2nc(C)c3c2OC(N)=C(C#N)C3c2ccccc2)c(Cl)c(Br)c1O (configuration not stated) | > 40.3 µM | > 66.7 µM (inactive)
9 | Cc1ccc(C2C(C(=O)c3sc(C)nc3C)=C(O)C(=O)N2CCN2CCOCC2)o1 (configuration not stated) | > 40.3 µM | > 66.7 µM (inactive)
10 | N#Cc1c(C(F)(F)F)cc(-c2ccccc2)nc1SCc1nc(N)nc(N2CCOCC2)n1 | > 40.3 µM | 
11 | CCc1cc2c(=O)c(-c3nc4ccccc4n3C)c(COCC(=O)O)oc2cc1OC(=O)C(C)(C)C | > 40.3 µM | 
12 | CCN(C(=O)Cc1c(C(=O)O)[nH]c2ccccc12)c1cc(OC)ccc1OC | > 40.3 µM | 
13 | CC1CCN(S(=O)(=O)c2ccc3c(c2)oc(=O)n3CC(=O)NCc2ccc3c(c2)OCO3)CC1 | > 40.3 µM | 
14 | CCOc1ccc(/C(O)=C2/C(=O)C(=O)N(CC3CCCO3)C2c2ccco2)cc1 (configuration not stated) | > 40.3 µM | > 66.7 µM (inactive)
15 | CCCc1cc(=O)n2[nH]c(C)c(-c3ccccc3)c2n1 | > 40.3 µM | 
16 | CCOc1ccccc1NC(=O)CSc1nccn1-c1ccccc1 | > 40.3 µM | 
17 | CCN1C(=O)/C(=C2\SC(=S)N(CCCOC)C2=O)c2ccccc21 | > 40.3 µM | 
18 | CCOC(=O)Cc1cc(=O)n2[nH]c(C)c(-c3ccccc3)c2n1 | > 40.3 µM | 
19 | CCCOc1ccc(C2C(C(=O)c3ccco3)=C(O)C(=O)N2CCCn2ccnc2)cc1 (configuration not stated) | > 40.3 µM | > 66.7 µM (inactive)
20 | COc1cccc2cc(C(=O)C3=C(O)C(=O)N(Cc4ccco4)C3c3cccnc3)oc12 (configuration not stated) | > 40.3 µM | > 66.7 µM (inactive)
21 | O=C1C(CCS(=O)c2ccccc2)C(=O)N(c2ccccc2)N1c1ccccc1 (configuration not stated) | > 40.3 µM | > 66.7 µM (inactive)
22 | COc1cccc2c1C(=O)c1c(O)c3c(c(O)c1C2=O)C[C@@](O)(C(C)=O)C[C@@H]3O[C@H]1C[C@H](N)[C@H](O)[C@H](C)O1 | 15.2 µM | 
23 | COc1ccc(S(=O)(=O)NC(C)C(=O)Nc2cccc(C(C)=O)c2)cc1 (configuration not stated) | > 40.3 µM | 

Row | Compound | Ki | IC50
24 | O=C(C1=C(O)C(=O)N(Cc2ccccc2)C1c1cccnc1)c1ccco1 (configuration not stated) | > 40.3 µM | > 66.7 µM (inactive)
25 | COc1ccc(OC)c(C2C(C(=O)c3cccs3)=C(O)C(=O)N2c2cc(C)on2)c1 (configuration not stated) | > 40.3 µM | > 66.7 µM (inactive)
26 | COc1ccc(-c2nc(-c3ccc(NC(=O)c4ccc(Br)o4)cc3)no2)cc1OC | > 40.3 µM | 
27 | Cc1ccc(NC(=O)C2C(=O)N(CCO)C3(C)CC2c2ccccc2O3)cc1 (configuration not stated) | > 40.3 µM | 
28 | COc1ccc(OC)c(C2C(C(=O)c3ccco3)=C(O)C(=O)N2CCCN2CCOCC2)c1 (configuration not stated) | > 40.3 µM | > 66.7 µM (inactive)
29 | CCOC(=O)c1sc(=S)n2c1[nH]c(=O)c1ccc(C(=O)OC)cc12 | > 40.3 µM | 
30 | COc1ccccc1NC(=O)CSc1nnc(Cn2nnc(-c3ccccc3)n2)n1-c1ccccc1 | > 40.3 µM | 
31 | CCOc1cccc(/C(O)=C2/C(=O)C(=O)N(CCOC)C2c2ccc(C)o2)c1 (configuration not stated) | > 40.3 µM | > 66.7 µM (inactive)
32 | CSc1ccccc1NS(=O)(=O)c1ccccc1 | > 40.3 µM | 
33 | CC1Oc2ccccc2N(Cc2ccccc2Cl)C1=O (configuration not stated) | > 40.3 µM | 
34 | CCCC(=O)Nc1cc(-c2cn3cccnc3n2)ccc1OC | 13.8 µM | 
35 | CCCCC1C(=O)N(c2ccccc2)N(c2ccccc2)C1=O | > 40.3 µM | > 66.7 µM (inactive)
36 | CSCCC1C(C#N)=C(N)Oc2n[nH]c(-c3cccs3)c21 (configuration not stated) | > 40.3 µM | > 66.7 µM (inactive)
37 | Cc1cccc(OCC(=O)Nc2cc(C)ccc2O)c1 | > 40.3 µM | 
38 | COC(=O)[C@H](C(C)C)n1c(C)c(C(C)=O)c(C(C)=O)c1C | > 40.3 µM | 
39 | CCOc1cc(C2C(C(=O)c3ccco3)=C(O)C(=O)N2CCc2ccccc2)ccc1O (configuration not stated) | > 40.3 µM | > 66.7 µM (inactive)
40 | O=C(O)CCCNc1cc(N2CCC3(CC2)OCCO3)c2noc3c2c1C(=O)c1ccccc1-3 | 6.6 µM | 
41 | O=C(C1=C(O)C(=O)N(Cc2ccccc2)C1c1ccncc1)c1ccco1 (configuration not stated) | > 40.3 µM | > 66.7 µM (inactive)
42 | O=C(NCc1cccnc1)C1c2ccccc2C(=O)N1C1CCCCCC1 (configuration not stated) | > 40.3 µM | 
43 | COc1ccc(OC)c(C2/C(=C(/O)c3ccccc3)C(=O)C(=O)N2Cc2ccco2)c1 (configuration not stated) | > 40.3 µM | > 66.7 µM (inactive)
44 | CN1C(=O)/C(=C2\SC(=S)N(C(CCC(=O)O)C(=O)O)C2=O)c2ccccc21 (configuration not stated) | > 40.3 µM | 
45 | COc1ccc(-c2nc(-c3ccc(Br)o3)no2)cc1OC | > 40.3 µM | 
46 | CC(C)OC(=O)c1cc(NC(=O)C2C3CCC(O3)C2C(=O)O)cc(C(=O)OC(C)C)c1 (configuration not stated) | > 40.3 µM | 

Row | Compound | Ki | IC50
47 | Cc1nc2c(C)cccn2c1/C(O)=C1\C(=O)C(=O)N(CCN2CCOCC2)C1c1cccs1 (configuration not stated) | > 40.3 µM | > 66.7 µM (inactive)
48 | COC(=O)C1=[N+]([O-])OC(C(=O)OC)C1c1c[nH]c2ccccc12 (configuration not stated) | > 40.3 µM | 
49 | COc1ccc(-c2nc(N3CCCC3)[nH]c(=O)c2C#N)cc1 | > 40.3 µM | 
50 | CCCNC(=O)CS(=O)(=O)Cc1nc(-c2cccc(OC)c2)oc1C | > 40.3 µM | 
51 | Cc1ccc(C2/C(=C(/O)c3ccc(Br)cc3)C(=O)C(=O)N2Cc2ccco2)o1 (configuration not stated) | > 40.3 µM | > 66.7 µM (inactive)
52 | CCOc1cc(C2C(C(=O)c3ccc(C)o3)=C(O)C(=O)N2CCc2ccccc2)ccc1O (configuration not stated) | > 40.3 µM | > 66.7 µM (inactive)
53 | O=C(C1=C(O)C(=O)N(CCOCCO)C1c1cccs1)c1cccs1 (configuration not stated) | > 40.3 µM | > 66.7 µM (inactive)
54 | O=C1C(C23CC4CC(CC(C4)C2)C3)C(=O)N(c2ccccc2)N1c1ccccc1 | > 40.3 µM | > 66.7 µM (inactive)
55 | COCCCN1C(=O)C(=O)/C(=C(/O)c2ccccc2)C1c1ccc2c(c1)OCO2 (configuration not stated) | > 40.3 µM | > 66.7 µM (inactive)
56 | O=C(C1=C(O)C(=O)N(c2ncccn2)C1c1cccc(Cl)c1)c1ccco1 (configuration not stated) | > 40.3 µM | > 66.7 µM (inactive)
57 | CCCCn1c(NC(=O)CC)c(C#N)c2nc3ccccc3nc21 | > 40.3 µM | 
58 | COC(=O)C1(S(=O)(=O)c2cccc3nsnc23)CC1 | > 40.3 µM | 
59 | CC1(C)S[C@@H]2[C@H](NC(=O)Cc3ccccc3)C(=O)N2[C@H]1C(=O)O | > 40.3 µM | 
60 | Cc1cc(NC(=O)CSc2nnc(Cn3c(=O)sc4ccccc43)n2-c2ccccc2C)no1 | > 40.3 µM | 
61 | COC(=O)COc1ccc2c(=O)c(Oc3ccccc3)c(C)oc2c1 | > 40.3 µM | 
62 | COc1ccc(C2C(C(=O)c3cccs3)=C(O)C(=O)N2c2nnc(C)s2)cc1OC (configuration not stated) | > 40.3 µM | > 66.7 µM (inactive)
63 | COCCCN1C(=O)C(=O)/C(=C(/O)c2ccc3c(c2)CC(C)O3)C1c1cccnc1 (configuration not stated) | > 40.3 µM | > 66.7 µM (inactive)
64 | Clc1ccc(Cc2nn3c(-c4ccncc4)nnc3s2)cc1 | > 40.3 µM | 
65 | CCCc1nc2ccccc2c2nc(N)nn12 | > 40.3 µM | 
66 | COc1ccc(C2C(C(=O)c3ccco3)=C(O)C(=O)N2Cc2cccnc2)cc1OC (configuration not stated) | > 40.3 µM | > 66.7 µM (inactive)
67 | COc1ccc(Cl)cc1-n1c(=S)sc2c(=O)[nH]c(SCC(=O)NCC3CCCO3)nc21 (configuration not stated) | > 40.3 µM | 
68 | COc1ccc(-c2cc(C(F)(F)F)nc(NC3CCCC3)n2)cc1OC | > 40.3 µM | 
69 | CC1(C)S[C@@H]2[C@H](NC(=O)C(C(=O)O)c3ccccc3)C(=O)N2[C@H]1C(=O)O (some centres not stated) | > 40.3 µM | 

Row | Compound | Ki | IC50
70 | COc1ccccc1C1/C(=C(/O)c2ccccc2)C(=O)C(=O)N1CCO (configuration not stated) | > 40.3 µM | > 66.7 µM (inactive)
71 | CCCOc1ccc(C2C(C(=O)c3ccc(C)o3)=C(O)C(=O)N2Cc2cccnc2)cc1 (configuration not stated) | > 40.3 µM | > 66.7 µM (inactive)
72 | C=CCn1c(SCCCC)nc(O)cc1=O | > 40.3 µM | 
73 | COc1ccc(CCN2C(=O)C(O)=C(C(=O)c3ccco3)C2c2cccs2)cc1OC (configuration not stated) | > 40.3 µM | > 66.7 µM (inactive)
74 | CN1CCN(CCCNC(=O)Nc2cccc3ccccc23)CC1 | > 40.3 µM | 
75 | C=CCN1C(=O)C2(/C(=C(\O)c3ccc4c(c3)OCCO4)C(=O)C(=O)N2CCCOC)c2ccccc21 (configuration not stated) | > 40.3 µM | > 66.7 µM (inactive)
76 | CCOC(=O)c1c(C)[nH]c(C=Nc2ccccc2)c1O | > 40.3 µM | 
77 | CCc1nnc(NC(=O)CSc2nnc(-c3cc4ccccc4cc3O)n2CC)s1 | > 40.3 µM | 
78 | O=C(C1=C(O)C(=O)N(Cc2ccccc2)C1c1ccco1)c1ccco1 (configuration not stated) | > 40.3 µM | > 66.7 µM (inactive)
79 | O=C(Cn1c(=O)oc2ccccc21)N1CCN(c2ccccc2)CC1 | > 40.3 µM | 
80 | CCOC(=O)Cc1cc(=O)n2[nH]c(C)c(-c3ccc(OC)cc3)c2n1 | > 40.3 µM | 
81 | COc1ccc(-n2c(Cc3cccn3C)nnc2SCC(=O)Nc2ccc(Cl)cc2)cc1 | > 40.3 µM | 
82 | Cc1nc2c(C#N)c(C)[nH]n2c(=O)c1Cc1ccccc1 | > 40.3 µM | 
83 | CC1Cc2cc(/C(O)=C3\C(=O)C(=O)N(CCN4CCOCC4)C3c3ccccc3F)ccc2O1 (configuration not stated) | > 40.3 µM | > 66.7 µM (inactive)
84 | CCc1nn2c(=O)cc(CSc3nc4sc5c(c4c(=O)n3C)CCCC5)nc2s1 | > 40.3 µM | 
85 | C=CCOc1ccc(C2C(C(=O)c3cccs3)=C(O)C(=O)N2c2nnc(C)s2)cc1 (configuration not stated) | > 40.3 µM | > 66.7 µM (inactive)
86 | CC1=C(C(=O)OC(C)C)[C@]2(C(=O)N(CC(N)=O)c3ccccc32)C(C#N)=C(N)O1 | > 40.3 µM | > 66.7 µM (inactive)
87 | CC(C)OC(=O)c1nnn(-c2nonc2N)c1CN1CCc2ccccc2C1 | > 40.3 µM | 
88 | O=C(Nc1nnc(-c2ccccc2Cl)o1)c1ccc(S(=O)(=O)N2CCCCCC2)cc1 | > 40.3 µM | 
89 | Cc1csc(NC(=O)CCn2c(=O)oc3ccccc32)n1 | > 40.3 µM | 
90 | Cc1[nH]n2c(=O)c(C#N)c(-c3ccccc3)nc2c1-c1ccccc1 | > 40.3 µM | 
91 | CCC(CCC(=O)Nc1cccc(C(=O)O)c1)C(=O)O (configuration not stated) | > 40.3 µM | 
